Measurements published in patent US20120029187A1, “HALOALKYLSULFONANILIDE DERIVATIVE” (Nissan Chemical Industries, Ltd., priority 2009, published 2012).

Experiments:
Type in all cases: in vivo
[1] = system: water foxtail; test: Test Example 4: herbicidal effect in foliage treatment; conditions: three weeks after application
Procedure, shortened: (§1)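 A uniform foliar spray of emulsifiable concentrate, diluted with water to give the stated g/a dose, was applied to plants raised for 14 days from seed in sterilized diluvial soil at 25 to 30° C. Herbicidal effects were scored three weeks later.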

[2] = system: beadstraw; test: as above; conditions: three weeks after application
Procedure, shortened: as §1

[3] = system: Italian ryegrass; test: as above; conditions: three weeks after application
Procedure, shortened: as §1

[4] = system: giant foxtail; test: as above; conditions: three weeks after application
Procedure, shortened: as §1

[5] = system: common ragweed; test: as above; conditions: three weeks after application
Procedure, shortened: as §1

[6] = system: redroot pigweed; test: as above; conditions: three weeks after application
Procedure, shortened: as §1

[7] = system: common lambsquater; test: as above; conditions: three weeks after application
Procedure, shortened: as §1

[8] = system: wild oat; test: as above; conditions: three weeks after application
Procedure, shortened: as §1

[9] = system: common chickweed; test: as above; conditions: three weeks after application
Procedure, shortened: as §1

[10] = system: posumbu knotweed; test: as above; conditions: three weeks after application
Procedure, shortened: as §1

[11] = system: large crabgrass; test: as above; conditions: three weeks after application
Procedure, shortened: as §1

[12] = system: barnyardgrass; test: as above; conditions: three weeks after application
Procedure, shortened: as §1

[13] = system: velvetleaf; test: as above; conditions: three weeks after application
Procedure, shortened: as §1

[14] = system: water foxtail; test: Test Example 3: herbicidal effects in soil treatment
Procedure, shortened: (§2)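 Seeds were sown in sterilized diluvial soil and covered with about 1.5 cm of soil. Compounds, formulated as emulsifiable concentrates and diluted with water, were sprayed evenly over the soil surface at set doses in g/a. Herbicidal effect was scored on a rating scale three weeks later.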

[15] = system: Italian ryegrass; test: as above
Procedure, shortened: as §2

[16] = system: giant foxtail; test: as above
Procedure, shortened: as §2

[17] = system: common ragweed; test: as above
Procedure, shortened: as §2

[18] = system: redroot pigweed; test: as above
Procedure, shortened: as §2

[19] = system: common lambsquater; test: as above; conditions: dose 6.3 g/a
Procedure, shortened: as §2

[20] = system: wild oat; test: as above
Procedure, shortened: as §2

[21] = system: common chickweed; test: as above
Procedure, shortened: as §2

[22] = system: posumbu knotweed; test: as above
Procedure, shortened: as §2

[23] = system: large crabgrass; test: as above
Procedure, shortened: as §2

[24] = system: barnyardgrass; test: as above
Procedure, shortened: as §2

[25] = system: velvetleaf; test: as above
Procedure, shortened: as §2

[26] = system: ducksalad; test: Test Example 2: herbicidal effects during the vegetation period under submerged conditions; conditions: treatment during the vegetation period under submerged conditions; dose 2.52 g/a
Procedure, shortened: (§3)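 Barnyardgrass, bulrush and ducksalad were co-sown in alluvial soil flooded to 4 cm and grown in a greenhouse at 25 to 30° C. At the 1- or 2-leaf stage, water-diluted emulsifiable concentrates went onto the water surface at set doses (g/a). Herbicidal effect was scored three weeks later on a graded scale.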

[27] = system: bulrush; test: as above; conditions: treatment during the vegetation period under submerged conditions; dose 2.52 g/a
Procedure, shortened: as §3

[28] = system: barnyardgrass; test: as above; conditions: treatment during the vegetation period under submerged conditions; dose 2.52 g/a
Procedure, shortened: as §3

[29] = system: ducksalad; test: Test Example 1: herbicidal effects in preemergence treatment under submerged conditions; conditions: dose 2.52 g/a
Procedure, shortened: (§4)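 Alluvial soil flooded to 4 cm depth; barnyardgrass, bulrush and ducksalad sown and 2.5-leaf rice seedlings transplanted. Same day, water-diluted emulsifiable concentrates applied to the water surface at set doses (g/a). Kept at 25–30 °C in greenhouse; effects scored 0–5 by mortality after three weeks.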

[30] = system: bulrush; test: as above; conditions: dose 2.52 g/a
Procedure, shortened: as §4

[31] = system: barnyardgrass; test: as above; conditions: dose 2.52 g/a
Procedure, shortened: as §4

[32] = system: transplanted rice; test: Test Example 1: preemergence treatment under submerged conditions, effect on crop; conditions: dose 2.52 g/a
Procedure, shortened: as §4

In the case of `CC1OCCN(Cc2ccccc2NS(=O)(=O)C(F)(F)F)C1=O` (centres unmarked) [Compound I-4, 2-methyl-4-(2-trifluoromethanesulfonylaminobenzyl)-1,4-oxazinan-3-one], the “G: water foxtail, herbicidal effect” value ([1]; dose 6.3 g/a) is reported as 5 (mortality of 90% or above (nearly complete death)), the “O: beadstraw, herbicidal effect” value ([2]; dose 6.3 g/a) is reported as 4 (mortality of at least 70% and less than 90%) and the “H: Italian ryegrass, herbicidal effect” value ([3]; dose 6.3 g/a) is reported as 2 (mortality of at least 20% and less than 40%). For the same molecule, the “E: giant foxtail, herbicidal effect” value ([4]; dose 6.3 g/a) was 4 (mortality of at least 70% and less than 90%), the “J: common ragweed, herbicidal effect” value ([5]; dose 6.3 g/a) was 4 (mortality of at least 70% and less than 90%) and the “K: redroot pigweed, herbicidal effect” value ([6]; dose 6.3 g/a) was 3 (mortality of at least 40% and less than 70%). The “L: common lambsquater, herbicidal effect” value ([7]; dose 6.3 g/a) was 4 (mortality of at least 70% and less than 90%), the “F: wild oat, herbicidal effect” value ([8]; dose 6.3 g/a) was 0 (mortality of less than 5% (almost ineffective)) and the “N: common chickweed, herbicidal effect” value ([9]; dose 6.3 g/a) was 4 (mortality of at least 70% and less than 90%). For the same molecule, the “M: posumbu knotweed, herbicidal effect” value ([10]; dose 6.3 g/a) was 3 (mortality of at least 40% and less than 70%), the “D: large crabgrass, herbicidal effect” value ([11]; dose 6.3 g/a) was 5 (mortality of 90% or above (nearly complete death)) and the “A: barnyardgrass, herbicidal effect” value ([12]; dose 6.3 g/a) was 5 (mortality of 90% or above (nearly complete death)). The “I: velvetleaf, herbicidal effect” value ([13]; dose 6.3 g/a) was 5 (mortality of 90% or above (nearly complete death)), the “G: water foxtail, herbicidal effect (evaluation scale 0-5)” value ([14]; dose 6.3 g/a) was 5 (mortality of 90% or above (nearly complete death)) and the “H: Italian ryegrass, herbicidal effect (evaluation scale 0-5)” value ([15]; dose 6.3 g/a) was 3 (mortality of at least 40% and less than 70%). For the same molecule, the “E: giant foxtail, herbicidal effect (evaluation scale 0-5)” value ([16]; dose 6.3 g/a) was 3 (mortality of at least 40% and less than 70%), the “J: common ragweed, herbicidal effect (evaluation scale 0-5)” value ([17]; dose 6.3 g/a) was 5 (mortality of 90% or above (nearly complete death)) and the “K: redroot pigweed, herbicidal effect (evaluation scale 0-5)” value ([18]; dose 6.3 g/a) was 4 (mortality of at least 70% and less than 90%). For the same molecule, the “L: common lambsquater, herbicidal effect (evaluation scale 0-5)” value [19] was 5 (mortality of 90% or above (nearly complete death)), the “F: wild oat, herbicidal effect (evaluation scale 0-5)” value ([20]; dose 6.3 g/a) was 0 (mortality of less than 5% (almost ineffective)) and the “N: common chickweed, herbicidal effect (evaluation scale 0-5)” value ([21]; dose 6.3 g/a) was 5 (mortality of 90% or above (nearly complete death)). For the same molecule, the “M: posumbu knotweed, herbicidal effect (evaluation scale 0-5)” value ([22]; dose 6.3 g/a) was 4 (mortality of at least 70% and less than 90%), the “D: large crabgrass, herbicidal effect (evaluation scale 0-5)” value ([23]; dose 6.3 g/a) was 5 (mortality of 90% or above (nearly complete death)) and the “A: barnyardgrass, herbicidal effect (evaluation scale 0-5)” value ([24]; dose 6.3 g/a) was 4 (mortality of at least 70% and less than 90%). The “I: velvetleaf, herbicidal effect (evaluation scale 0-5)” value ([25]; dose 6.3 g/a) was 4 (mortality of at least 70% and less than 90%), the “C: ducksalad, herbicidal effect (evaluation scale 0-5)” value (“C: ducksalad, herbicidal effect” for short) [26] was 5 (mortality of 90% or above (nearly complete death)) and the “B: bulrush, herbicidal effect (evaluation scale 0-5)” value (from here on “B: bulrush, herbicidal effect”) [27] was 5 (mortality of 90% or above (nearly complete death)). The “A: barnyardgrass, herbicidal effect (evaluation scale 0-5)” value [28] was 5 (mortality of 90% or above (nearly complete death)), the “C: ducksalad, herbicidal effect” value [29] was 5 (mortality of 90% or above (nearly complete death)) and the “B: bulrush, herbicidal effect” value [30] was 5 (mortality of 90% or above (nearly complete death)). For the same molecule, the “A: barnyardgrass, herbicidal effect (evaluation scale 0-5)” value [31] was 5 (mortality of 90% or above (nearly complete death)).
In the case of `CCCOC(=O)N(c1ccccc1CN1COC(C)(C)CC1=O)S(=O)(=O)C(F)(F)F` [II-24], the “G: water foxtail, herbicidal effect” value ([1]; dose 3.2 g/a) is reported as 5 (mortality of 90% or above (nearly complete death)), the “O: beadstraw, herbicidal effect” value ([2]; dose 3.2 g/a) is reported as 5 (mortality of 90% or above (nearly complete death)) and the “H: Italian ryegrass, herbicidal effect” value ([3]; dose 3.2 g/a) is reported as 4 (mortality of at least 70% and less than 90%). The “E: giant foxtail, herbicidal effect” value ([4]; dose 3.2 g/a) was 4 (mortality of at least 70% and less than 90%), the “J: common ragweed, herbicidal effect” value ([5]; dose 3.2 g/a) was 3 (mortality of at least 40% and less than 70%) and the “K: redroot pigweed, herbicidal effect” value ([6]; dose 3.2 g/a) was 0 (mortality of less than 5% (almost ineffective)). The “L: common lambsquater, herbicidal effect” value ([7]; dose 3.2 g/a) was 0 (mortality of less than 5% (almost ineffective)), the “F: wild oat, herbicidal effect” value ([8]; dose 3.2 g/a) was 0 (mortality of less than 5% (almost ineffective)) and the “N: common chickweed, herbicidal effect” value ([9]; dose 3.2 g/a) was 4 (mortality of at least 70% and less than 90%). The “M: posumbu knotweed, herbicidal effect” value ([10]; dose 3.2 g/a) was 3 (mortality of at least 40% and less than 70%), the “D: large crabgrass, herbicidal effect” value ([11]; dose 3.2 g/a) was 4 (mortality of at least 70% and less than 90%) and the “A: barnyardgrass, herbicidal effect” value ([12]; dose 3.2 g/a) was 5 (mortality of 90% or above (nearly complete death)). The “I: velvetleaf, herbicidal effect” value ([13]; dose 3.2 g/a) was 4 (mortality of at least 70% and less than 90%), the “G: water foxtail, herbicidal effect (evaluation scale 0-5)” value ([14]; dose 3.2 g/a) was 5 (mortality of 90% or above (nearly complete death)) and the “H: Italian ryegrass, herbicidal effect (evaluation scale 0-5)” value ([15]; dose 3.2 g/a) was 5 (mortality of 90% or above (nearly complete death)). For the same molecule, the “E: giant foxtail, herbicidal effect (evaluation scale 0-5)” value ([16]; dose 3.2 g/a) was 3 (mortality of at least 40% and less than 70%), the “J: common ragweed, herbicidal effect (evaluation scale 0-5)” value ([17]; dose 3.2 g/a) was 4 (mortality of at least 70% and less than 90%) and the “K: redroot pigweed, herbicidal effect (evaluation scale 0-5)” value ([18]; dose 3.2 g/a) was 0 (mortality of less than 5% (almost ineffective)). The “F: wild oat, herbicidal effect (evaluation scale 0-5)” value ([20]; dose 3.2 g/a) was 0 (mortality of less than 5% (almost ineffective)), the “N: common chickweed, herbicidal effect (evaluation scale 0-5)” value ([21]; dose 3.2 g/a) was 3 (mortality of at least 40% and less than 70%) and the “M: posumbu knotweed, herbicidal effect (evaluation scale 0-5)” value ([22]; dose 3.2 g/a) was 4 (mortality of at least 70% and less than 90%). For the same molecule, the “D: large crabgrass, herbicidal effect (evaluation scale 0-5)” value ([23]; dose 3.2 g/a) was 4 (mortality of at least 70% and less than 90%), the “A: barnyardgrass, herbicidal effect (evaluation scale 0-5)” value ([24]; dose 3.2 g/a) was 4 (mortality of at least 70% and less than 90%) and the “I: velvetleaf, herbicidal effect (evaluation scale 0-5)” value ([25]; dose 3.2 g/a) was 5 (mortality of 90% or above (nearly complete death)). For the same molecule, the “C: ducksalad, herbicidal effect” value [26] was 5 (mortality of 90% or above (nearly complete death)), the “B: bulrush, herbicidal effect” value [27] was 5 (mortality of 90% or above (nearly complete death)) and the “A: barnyardgrass, herbicidal effect (evaluation scale 0-5)” value [28] was 5 (mortality of 90% or above (nearly complete death)). The “a: transplanted rice, effect on crop (evaluation scale 0-5)” value [32] was 0 (mortality of less than 5% (almost ineffective)), the “C: ducksalad, herbicidal effect” value [29] was 5 (mortality of 90% or above (nearly complete death)) and the “B: bulrush, herbicidal effect” value [30] was 5 (mortality of 90% or above (nearly complete death)). The “A: barnyardgrass, herbicidal effect (evaluation scale 0-5)” value [31] was 5 (mortality of 90% or above (nearly complete death)).
